Experimental data from ChEMBL document CHEMBL1201862, “PubChem BioAssay data set” (2004).
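Protocol summary: plate cells (96-well), add compound at 5 concentrations, incubate 48 h, interpolate endpoints linearly. GI50: concentration for 50% inhibition of growth.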 Active and inactive are the calls of the source. Rule as the data show it: active = GI50 up to about 1.1 µM and inactive = higher.

Key:
Assay in all cases: NCI anticancer screen, dose series, 48 h
A498 = test system: A498
A549 = test system: A549
ACHN = test system: ACHN
CAKI-1 = test system: CAKI-1
HT-29 = test system: HT-29
Hs-578T = test system: Hs-578T
IGROV-1 = test system: IGROV-1
MDA-MB-435 = test system: MDA-MB-435
Malme-3M = test system: Malme-3M
OVCAR-8 = test system: OVCAR-8
RXF 393 = test system: RXF 393
SF-539 = test system: SF-539
SN12C = test system: SN12C
UACC-62 = test system: UACC-62
UO-31 = test system: UO-31
CCRF-CEM = test system: CCRF-CEM
LOX IMVI = test system: LOX IMVI

SMILES	GI50 (A498)	GI50 (A549)	GI50 (ACHN)	GI50 (CAKI-1)	GI50 (HT-29)	GI50 (Hs-578T)	GI50 (IGROV-1)	GI50 (MDA-MB-435)	GI50 (Malme-3M)	GI50 (OVCAR-8)	GI50 (RXF 393)	GI50 (SF-539)	GI50 (SN12C)	GI50 (UACC-62)	GI50 (UO-31)	GI50 (CCRF-CEM)	GI50 (LOX IMVI)
COc1cc2c(cc1OCCCCN1CCN(CCCCOc3cc4c(cc3OC)C(=O)N3CCC[C@H]3C=N4)CC1)N=C[C@@H]1CCCN1C2=O	0.0543 µM (active)	0.0923 µM (active)	0.0448 µM (active)	0.0318 µM (active)	0.0443 µM (active)	0.0608 µM (active)	0.146 µM (active)	0.0508 µM (active)	0.031 µM (active)	< 0.0172 µM (active)	0.0676 µM (active)	< 0.01 µM (active)	< 0.01 µM (active)	< 0.0105 µM (active)	0.0798 µM (active)		
C=CC(C)(C)c1c(OC)oc2ccc(OC)c(C)c2c1=O	> 100 µM (inactive)	> 100 µM (inactive)	> 100 µM (inactive)	> 100 µM (inactive)	96.4 µM (inactive)	> 100 µM (inactive)	> 100 µM (inactive)	> 100 µM (inactive)	> 100 µM (inactive)	> 100 µM (inactive)		> 100 µM (inactive)	> 100 µM (inactive)	> 100 µM (inactive)	> 100 µM (inactive)	> 100 µM (inactive)	> 100 µM (inactive)
CC(=O)Oc1ccc2c(c1)c1c(OC(C)=O)c3ccccc3c(OC(C)=O)c1n2Cc1cccc(C)c1	29.3 µM (inactive)	31.3 µM (inactive)	31.8 µM (inactive)	40.3 µM (inactive)	> 100 µM (inactive)	24.9 µM (inactive)	21.2 µM (inactive)	65.6 µM (inactive)	77.6 µM (inactive)	48.6 µM (inactive)	38.9 µM (inactive)	25.1 µM (inactive)	> 100 µM (inactive)	45.4 µM (inactive)	40 µM (inactive)	17.1 µM (inactive)	
O=C(OCC1OC2OC(c3ccccc3)(n3ccc4c([N+](=O)[O-])ccnc43)OC2C1OC(=O)c1ccccc1)c1ccccc1 (stereo not given)	> 100 µM (inactive)	> 100 µM (inactive)	> 100 µM (inactive)	> 100 µM (inactive)	> 100 µM (inactive)	64.7 µM (inactive)	> 100 µM (inactive)	> 100 µM (inactive)	> 100 µM (inactive)	> 100 µM (inactive)			> 100 µM (inactive)	> 100 µM (inactive)	> 100 µM (inactive)	> 100 µM (inactive)	> 100 µM (inactive)
OCC1(CNc2cc(Cl)ncn2)CCC1	> 100 µM (inactive)	> 100 µM (inactive)	> 100 µM (inactive)		> 100 µM (inactive)	> 100 µM (inactive)	> 100 µM (inactive)	> 100 µM (inactive)	> 100 µM (inactive)	> 100 µM (inactive)		> 100 µM (inactive)	> 100 µM (inactive)		> 100 µM (inactive)	> 100 µM (inactive)	> 100 µM (inactive)
COC(=O)c1c(O)ccc2c1c1cc3ccccc3c(O)c1n2Cc1ccccc1Cl	> 100 µM (inactive)	23.5 µM (inactive)	22.4 µM (inactive)	22.4 µM (inactive)	11.7 µM (inactive)	27.1 µM (inactive)	19.4 µM (inactive)	18.5 µM (inactive)	30.3 µM (inactive)	25.3 µM (inactive)	23 µM (inactive)	17.3 µM (inactive)	32.7 µM (inactive)	23.4 µM (inactive)	22.1 µM (inactive)	34.7 µM (inactive)	
Cc1n[n+]([O-])c(C)cc1[N+](=O)[O-]	18.1 µM (inactive)	22 µM (inactive)	16.6 µM (inactive)		14.1 µM (inactive)	28.6 µM (inactive)	21.8 µM (inactive)	15.6 µM (inactive)	20.9 µM (inactive)	15.5 µM (inactive)	25.2 µM (inactive)	27.6 µM (inactive)	14.9 µM (inactive)	17.7 µM (inactive)	16.2 µM (inactive)	1.36 µM (inactive)	20.9 µM (inactive)
O=C1CC(NCc2ccccc2)c2c(Cl)sc(Cl)c21 (stereo not given)	> 60.3 µM (inactive)	33.3 µM (inactive)	22.3 µM (inactive)	23.2 µM (inactive)	28.2 µM (inactive)	41.8 µM (inactive)	26.1 µM (inactive)	24.7 µM (inactive)	18.5 µM (inactive)	18 µM (inactive)		27.2 µM (inactive)	26 µM (inactive)	5.01 µM (inactive)	31.4 µM (inactive)	2.54 µM (inactive)	5.05 µM (inactive)
O=C1/C(=C/c2ccc(Cl)cc2)N=C(c2ccccc2)N1C1Nc2cc3c(cc2S1)NC(N1C(=O)/C(=C/c2ccc(Cl)cc2)N=C1c1ccccc1)S3 (stereo not given)	> 100 µM (inactive)		> 100 µM (inactive)	> 100 µM (inactive)	52.6 µM (inactive)	35.2 µM (inactive)	47.6 µM (inactive)	52.8 µM (inactive)		39.1 µM (inactive)	76.6 µM (inactive)	> 100 µM (inactive)			80.2 µM (inactive)	11.5 µM (inactive)	31.7 µM (inactive)
COC(=O)c1cc(/C=C\c2cc(OC)ccc2OC)ccc1OC	28.7 µM (inactive)	32.1 µM (inactive)	32.1 µM (inactive)	33.3 µM (inactive)	25.6 µM (inactive)	40.4 µM (inactive)	13.7 µM (inactive)	8.81 µM (inactive)		36.4 µM (inactive)		38.5 µM (inactive)	38.2 µM (inactive)	22.6 µM (inactive)	30.3 µM (inactive)	55.1 µM (inactive)	24 µM (inactive)
Clc1cccc2[nH]ncc12	> 100 µM (inactive)	> 100 µM (inactive)	> 100 µM (inactive)	68.4 µM (inactive)	> 100 µM (inactive)	76 µM (inactive)	> 100 µM (inactive)	> 100 µM (inactive)		> 100 µM (inactive)	51.8 µM (inactive)	> 100 µM (inactive)	> 100 µM (inactive)	> 100 µM (inactive)		> 100 µM (inactive)	58.1 µM (inactive)
NC(=O)N/N=C/c1ccccc1O	> 100 µM (inactive)		> 100 µM (inactive)	> 100 µM (inactive)	> 100 µM (inactive)	53.6 µM (inactive)	> 100 µM (inactive)	> 100 µM (inactive)		> 100 µM (inactive)	> 100 µM (inactive)	> 100 µM (inactive)		> 100 µM (inactive)	> 100 µM (inactive)	> 100 µM (inactive)	> 100 µM (inactive)
O[C@H]1[C@H](O)[C@@H](O)[C@@]2(O)C[C@@H](O)[C@@H]1N2	> 100 µM (inactive)	> 100 µM (inactive)	> 100 µM (inactive)		> 100 µM (inactive)	> 100 µM (inactive)	> 100 µM (inactive)	> 100 µM (inactive)	> 100 µM (inactive)	> 100 µM (inactive)	> 100 µM (inactive)	> 100 µM (inactive)	> 100 µM (inactive)	> 100 µM (inactive)	85.7 µM (inactive)	> 100 µM (inactive)	> 100 µM (inactive)
O=Nc1c(-c2cccc([N+](=O)[O-])c2)nc2cnccn12		29.5 µM (inactive)	3.63 µM (inactive)	17 µM (inactive)	14.3 µM (inactive)	31.7 µM (inactive)	17.4 µM (inactive)	20.1 µM (inactive)	22.2 µM (inactive)	14.5 µM (inactive)	23 µM (inactive)	20.3 µM (inactive)	24.4 µM (inactive)	18.5 µM (inactive)	11.7 µM (inactive)	0.14 µM (active)	15.2 µM (inactive)
COCN(CCC1=CCCCC1)C(=O)OC	> 100 µM (inactive)	> 100 µM (inactive)	> 100 µM (inactive)	> 100 µM (inactive)	> 100 µM (inactive)	> 100 µM (inactive)	> 100 µM (inactive)	> 100 µM (inactive)	> 100 µM (inactive)	> 100 µM (inactive)	> 100 µM (inactive)			> 100 µM (inactive)	46.3 µM (inactive)		
C/C=C1/CN2[C@@H](C3=C[C@@H]4[C@@H]5N(C3=O)c3ccccc3[C@@]53CCN5C/C(=C/C)[C@@H]4C[C@H]53)C[C@@]34c5ccccc5N5C(=O)CC=C([C@H]1C[C@H]23)[C@H]54 [ISOSUNGUCINE]	6.92 µM (inactive)	7.66 µM (inactive)	5.81 µM (inactive)	5.86 µM (inactive)	2.11 µM (inactive)	6.65 µM (inactive)		5.01 µM (inactive)	6.04 µM (inactive)	3.91 µM (inactive)	2.17 µM (inactive)	1.11 µM (active)	3.01 µM (inactive)	2.86 µM (inactive)	2.32 µM (inactive)	1.1 µM (active)	
C/C(=C/C(=O)Nn1c(Cc2ccccc2)n[nH]c1=O)C(=O)O		> 100 µM (inactive)	> 100 µM (inactive)	> 100 µM (inactive)	> 100 µM (inactive)	> 100 µM (inactive)	> 100 µM (inactive)	> 100 µM (inactive)	> 100 µM (inactive)	> 100 µM (inactive)	> 100 µM (inactive)	> 100 µM (inactive)	> 100 µM (inactive)	> 100 µM (inactive)	> 100 µM (inactive)	> 100 µM (inactive)	> 100 µM (inactive)
C/C(O)=C/C(=O)c1[nH]c(C(=O)O)cc1C1CCN(Cc2ccccc2)C1=O (stereo not given)	41.1 µM (inactive)	26.9 µM (inactive)	28.6 µM (inactive)	42.3 µM (inactive)	29.2 µM (inactive)	32.4 µM (inactive)	25.3 µM (inactive)	27.3 µM (inactive)	20 µM (inactive)	19.1 µM (inactive)	12 µM (inactive)			18.5 µM (inactive)	14.2 µM (inactive)		
